Source: patent US8791148B2, “Substituted benzimidazolone derivatives, medicaments comprising them and their use” (AbbVie Deutschland GmbH & Co. KG, priority 2006, dated 2014)

Target: T1, human vasopressin V1b receptor (Homo sapiens, UniProt P47901)
T1 construct: expressed in transfected cells; host or cells: CHO-K1 (cell line hV1b-3H2_CHO), membrane preparation
T1 sequence (P47901 1-424): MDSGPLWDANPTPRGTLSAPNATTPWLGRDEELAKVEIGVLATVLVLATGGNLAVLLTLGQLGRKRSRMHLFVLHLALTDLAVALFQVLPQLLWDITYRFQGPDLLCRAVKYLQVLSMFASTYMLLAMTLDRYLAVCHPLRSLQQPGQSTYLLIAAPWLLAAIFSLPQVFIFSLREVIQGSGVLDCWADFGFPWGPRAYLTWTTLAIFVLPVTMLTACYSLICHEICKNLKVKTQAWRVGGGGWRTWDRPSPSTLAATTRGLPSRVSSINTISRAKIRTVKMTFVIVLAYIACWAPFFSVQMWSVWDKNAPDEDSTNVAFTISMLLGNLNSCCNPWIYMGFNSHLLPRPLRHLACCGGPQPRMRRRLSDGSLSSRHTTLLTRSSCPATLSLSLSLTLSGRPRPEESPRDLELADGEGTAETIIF
Test: Vasopressin V1b receptor binding assay
Settings: membranes from CHO-K1 cells with stably expressed human V1b receptors; displacement of 1.5 nM 3H-AVP; read-out: V1b receptor affinity (affinity constant Ki)
Summary of the method: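 Membranes expressing human V1b receptor were incubated with radioligand and test compound (2% DMSO final) in 50 mM Tris, 10 mM MgCl2, 0.1% BSA, pH 7.4, for 60 min at room temperature, in triplicate. 1 uM AVP defined nonspecific binding. Bound ligand was separated by filtration and counted by scintillation; Ki came from nonlinear regression.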

Row | SMILES | Ki
1 | CCCN1CCN([C@H]2CCN(C(=O)C(c3ccccc3)n3c(=O)n(S(=O)(=O)c4ccccc4OC)c4ccc(C#N)cc43)C2)CC1 (stereo partly drawn) [Example 205, 1-(2-Methoxybenzenesulfonyl)-2-oxo-3-{2-oxo-1-phenyl-2-[(S)-3-(4-propylpiperazin-1-yl)pyrrolidin-1-yl]ethyl}-2,3-dihydro-1H-benzimidazole-5-carbonitrile] | 500 to 10000 nM
2 | COc1ccc(S(=O)(=O)n2c(=O)n(C(C(=O)N3CCC(NC4CCN(C)CC4)CC3)c3ccccc3)c3cc(C#N)ccc32)cc1 (stereo not drawn) [Example 206, 1-(4-Methoxybenzenesulfonyl)-3-{2-[4-(1-methylpiperidin-4-ylamino)piperidin-1-yl]-2-oxo-1-phenylethyl}-2-oxo-2,3-dihydro-1H-benzimidazole-5-carbonitrile] | < 100 nM
3 | COc1ccc(S(=O)(=O)n2c(=O)n(C(C(=O)N3CC[C@H](NC4CCN(C)CC4)C3)c3ccccc3)c3cc(C#N)ccc32)cc1 (stereo partly drawn) [Example 207, 1-(4-Methoxybenzenesulfonyl)-3-{2-[(S)-3-(1-methylpiperidin-4-ylamino)-pyrrolidin-1-yl]-2-oxo-1-phenylethyl}-2-oxo-2,3-dihydro-1H-benzimidazole-5-carbonitrile] | < 100 nM
4 | COc1ccc(S(=O)(=O)n2c(=O)n(C(C(=O)N3CC[C@H](NC4CCN(C(C)C)CC4)C3)c3ccccc3)c3cc(C#N)ccc32)cc1 (stereo partly drawn) [Example 208, 3-{2-[(S)-3-(1-Isopropylpiperidin-4-ylamino)pyrrolidin-1-yl]-2-oxo-1-phenylethyl}-1-(4-methoxybenzenesulfonyl)-2-oxo-2,3-dihydro-1H-benzimidazole-5-carbonitrile] | < 100 nM
5 | CCN1CCC(N[C@H]2CCN(C(=O)C(c3ccccc3)n3c(=O)n(S(=O)(=O)c4ccc(OC)cc4)c4ccc(C#N)cc43)C2)CC1 (stereo partly drawn) [Example 209, 3-{2-[(S)-3-(1-Ethylpiperidin-4-ylamino)pyrrolidin-1-yl]-2-oxo-1-phenylethyl}-1-(4-methoxybenzenesulfonyl)-2-oxo-2,3-dihydro-1H-benzimidazole-5-carbonitrile] | < 100 nM
6 | CCCN1CCC(N[C@H]2CCN(C(=O)C(c3ccccc3)n3c(=O)n(S(=O)(=O)c4ccc(OC)cc4)c4ccc(C#N)cc43)C2)CC1 (stereo partly drawn) [Example 210, 1-(4-Methoxybenzenesulfonyl)-2-oxo-3-{2-oxo-1-phenyl-2-[(S)-3-(1-propylpiperidin-4-ylamino)pyrrolidin-1-yl]ethyl}-2,3-dihydro-1H-benzimidazole-5-carbonitrile] | < 100 nM
7 | COc1ccc(S(=O)(=O)n2c(=O)n(C(C(=O)N3CC[C@H](N(C)C4CCN(C)CC4)C3)c3ccccc3)c3cc(C#N)ccc32)cc1 (stereo partly drawn) [Example 211, 1-(4-Methoxybenzenesulfonyl)-3-(2-{(S)-3-[methyl-(1-methylpiperidin-4-yl)-amino]pyrrolidin-1-yl}-2-oxo-1-phenylethyl)-2-oxo-2,3-dihydro-1H-benzimidazole-5-carbonitrile] | < 100 nM
8 | CCCN1CCN([C@H]2CCN(C(=O)C(c3ccccc3)n3c(=O)n(S(=O)(=O)c4ccc(C#N)cc4)c4ccc(C#N)cc43)C2)CC1 (stereo partly drawn) [Example 215, 1-(4-Cyano-benzenesulfonyl)-2-oxo-3-{2-oxo-1-phenyl-2-[(S)-3-(4-propylpiperazin-1-yl)-pyrrolidin-1-yl]ethyl}-2,3-dihydro-1H-benzoimidazole-5-carbonitrile] | 100 to 500 nM
9 | COc1ccc(S(=O)(=O)n2c(=O)n(C(C(=O)N3CC[C@H](NC(=O)OC(C)(C)C)C3)c3ccccc3)c3cc(C#N)ccc32)cc1 (stereo partly drawn) [Example 216, ((S)-1-{2-[6-Cyano-3-(4-methoxy-benzenesulfonyl)-2-oxo-2,3-dihydrobenzoimidazol-1-yl]-2-phenyl-acetyl}-pyrrolidin-3-yl)-carbamic acid tert-butyl ester] | 500 to 10000 nM
10 | COc1ccc(S(=O)(=O)n2c(=O)n(C(C(=O)N3CC[C@H](CN4CCN(Cc5ccccc5)CC4)C3)c3ccccc3)c3cc(C#N)ccc32)cc1 (stereo partly drawn) [Example 220, 3-{2-[(R)-3-(4-Benzyl-piperazin-1-ylmethyl)-pyrrolidin-1-yl]-2-oxo-1-phenylethyl}-1-(4-methoxy-benzenesulfonyl)-2-oxo-2,3-dihydro-1H-benzoimidazole-5-carbonitrile; compound with trifluoroacetic acid] | < 100 nM
11 | COc1ccc(S(=O)(=O)n2c(=O)n(C(C(=O)N3CC[C@@H](CN4CCN(Cc5ccccc5)CC4)C3)c3ccccc3)c3cc(C#N)ccc32)cc1 (stereo partly drawn) [Example 221, 3-{2-[(S)-3-(4-Benzyl-piperazin-1-ylmethyl)-pyrrolidin-1-yl]-2-oxo-1-phenylethyl}-1-(4-methoxy-benzenesulfonyl)-2-oxo-2,3-dihydro-1H-benzoimidazole-5-carbonitrile; compound with trifluoroacetic acid] | < 100 nM
12 | COc1ccc(S(=O)(=O)n2c(=O)n(C(C(=O)N3CC[C@H](CN4CCNCC4)C3)c3ccccc3)c3cc(C#N)ccc32)cc1 (stereo partly drawn) [Example 226, 1-(4-Methoxy-benzenesulfonyl)-2-oxo-3-[2-oxo-1-phenyl-2-((R)-3-piperazin-1-ylmethyl-pyrrolidin-1-yl)-ethyl]-2,3-dihydro-1H-benzoimidazole-5-carbonitrile] | < 100 nM
13 | CCN1CCN([C@H]2CCCN(C(=O)C(c3ccccc3)n3c(=O)n(S(=O)(=O)c4ccc(OC)cc4)c4ccc(C#N)cc43)C2)CC1 (stereo partly drawn) [Example 231, 3-{2-[(S)-3-(4-Ethyl-piperazin-1-yl)-piperidin-1-yl]-2-oxo-1-phenyl-ethyl}-1-(4-methoxy-benzenesulfonyl)-2-oxo-2,3-dihydro-1H-benzoimidazole-5-carbonitrile; compound with trifluoroacetic acid] | < 100 nM
14 | CCCN1CCN([C@H]2CCN(C(=O)C(c3ccccc3)n3c(=O)n(S(=O)(=O)c4ccc(OCCF)cc4)c4ccc(C#N)cc43)C2)CC1 (stereo partly drawn) [Example 232, 1-[4-(2-Fluoro-ethoxy)-benzenesulfonyl]-2-oxo-3-{2-oxo-1-phenyl-2-[(S)-3-(4-propyl-piperazin-1-yl)-pyrrolidin-1-yl]-ethyl}-2,3-dihydro-1H-benzoimidazole-5-carbonitrile] | 100 to 500 nM
15 | CCCN1CCN([C@H]2CCN(C(=O)C(c3ccccc3)n3c(=O)n(S(=O)(=O)c4ccc(OCC(F)F)cc4)c4ccc(C#N)cc43)C2)CC1 (stereo partly drawn) [Example 233, 1-[4-(2,2-Difluoro-ethoxy)-benzenesulfonyl]-2-oxo-3-{2-oxo-1-phenyl-2-[(S)-3-(4-propyl-piperazin-1-yl)-pyrrolidin-1-yl]-ethyl}-2,3-dihydro-1H-benzoimidazole-5-carbonitrile] | < 100 nM
16 | CCCN1CCN([C@H]2CCN(C(=O)C(c3ccccc3)n3c(=O)n(S(=O)(=O)c4ccc(OCC(F)(F)F)cc4)c4ccc(C#N)cc43)C2)CC1 (stereo partly drawn) [Example 234, 2-oxo-3-{2-oxo-1-phenyl-2-[(S)-3-(4-propyl-piperazin-1-yl)-pyrrolidin-1-yl]-ethyl}1-[4-(2,2,2-trifluoro-ethoxy)-benzenesulfonyl]-2,3-dihydro-1H-benzoimidazole-5-carbonitrile] | 100 to 500 nM
17 | CCCN1CCN(C[C@H]2CCN(C(=O)C(c3ccccc3)n3c(=O)n(S(=O)(=O)c4ccc(OC)cc4)c4ccc(C#N)cc43)C2)CC1 (stereo partly drawn) [Example 235, 1-(4-Methoxy-benzenesulfonyl)-2-oxo-3-{2-oxo-1-phenyl-2-[(R)-3-(4-propylpiperazin-1-ylmethyl)-pyrrolidin-1-yl]-ethyl}-2,3-dihydro-1H-benzoimidazole-5-carbonitrile; compound with trifluoroacetic acid] | < 100 nM
18 | COc1ccc(S(=O)(=O)n2c(=O)n(C(C(=O)N3CC[C@H](CN4CCN(C)CC4)C3)c3ccccc3)c3cc(C#N)ccc32)cc1 (stereo partly drawn) [Example 236, 1-(4-Methoxy-benzenesulfonyl)-3-{2-[(R)-3-(4-methyl-piperazin-1-ylmethyl)-pyrrolidin-1-yl]-2-oxo-1-phenyl-ethyl}-2-oxo-2,3-dihydro-1H-benzoimidazole-5-carbonitrile; compound with trifluoroacetic acid] | < 100 nM
19 | CCN1CCN(C[C@H]2CCN(C(=O)C(c3ccccc3)n3c(=O)n(S(=O)(=O)c4ccc(OC)cc4)c4ccc(C#N)cc43)C2)CC1 (stereo partly drawn) [Example 237, 3-{2-[(R)-3-(4-Ethyl-piperazin-1-ylmethyl)-pyrrolidin-1-yl]-2-oxo-1-phenyl-ethyl}-1-(4-methoxy-benzenesulfonyl)-2-oxo-2,3-dihydro-1H-benzoimidazole-5-carbonitrile; compound with trifluoroacetic acid] | < 100 nM
20 | COc1ccc(S(=O)(=O)n2c(=O)n(C(C(=O)N3CC[C@H](CN4CCN(C(C)C)CC4)C3)c3ccccc3)c3cc(C#N)ccc32)cc1 (stereo partly drawn) [Example 238, 3-{2-[(R)-3-(4-Isopropyl-piperazin-1-ylmethyl)-pyrrolidin-1-yl]-2-oxo-1-phenylethyl}-1-(4-methoxy-benzenesulfonyl)-2-oxo-2,3-dihydro-1H-benzoimidazole-5-carbonitrile; compound with trifluoroacetic acid] | < 100 nM
21 | COc1ccc(S(=O)(=O)n2c(=O)n(C(C(=O)N3CCC(N)CC3)c3ccccc3)c3cc(C#N)ccc32)cc1 (stereo not drawn) [Example 239, 3-[2-(4-Amino-piperidin-1-yl)-2-oxo-1-phenyl-ethyl]-1-(4-methoxybenzenesulfonyl)-2-oxo-2,3-dihydro-1H-benzoimidazole-5-carbonitrile] | 500 to 10000 nM
